# Values of other authors as cited in patent publication US20140271772A1, “BIODEGRADABLE SUBCUTANEOUS IMPLANTS AND METHODS OF MAKING” (priority 2013, published 2014).
structure (smiles),measurement,setting,value
Nc1nc2c(ncn2COCCO)c(=O)[nH]1 [acyclovir],toxicity to cats,cats,toxic to cats
same,oral bioavailability,,10-30%
